Experimental data published in patent publication US10996215B2, “Methods for determining drug efficacy for the treatment of diffuse large B-cell lymphoma, multiple myeloma, and myeloid cancers” (CELGENE CORPORATION, priority 2013, dated 2021).

Tests used:
[1] = system: DLBCL cell lines (GCB and ABC); assay: tritiated thymidine incorporation proliferation assay; type: cell-based
Protocol: Cells were then cultured for 3 days at 37° C. Tritiated thymidine was applied to the cell culture for the final 6 hours and cells were then harvested onto filter plates. After the plates have dried, scintillation fluid was added to the plates and read on a Top-count reader.
The cells were then analyzed for proliferation using a ^3H-thymidine incorporation assay.
Proliferation was assessed through tritiated thymidine incorporation.

[2] = system: IFN pathway; assay: effect on IFN pathway (FIG. 13); type: cell-based
[3] = system: ABC-DLBCL cell line; assay: Tandem Mass Tag proteomics, lenalidomide vs Compound A; type: cell-based; conditions: 24 h
Description: Cells were harvested and proteins were fractionated using a basic pH reverse gradient method. Fractionated samples were labeled using a Tandem Mass Tag method.

[4] = system: Aiolos, Ikaros, ZFP91; assay: Western blot in myeloma, lymphoma and primary B cells; type: cell-based; conditions: U266, DF15, RPMI8226, OCI-LY10, WSU-DLCL2, WSU-DLCL2 Compound A resistant, primary B cells; 8 hours
Protocol: Multiple myeloma cells (U266, DF15, RPMI8226), diffuse large B cell lymphoma cells (OCI-LY10, WSU-DLCL2, WSU-DLCL2 Compound A resistant), and primary B cells were treated with DMSO, […] or […] for 8 hours. Cells were harvested and were treated in cell lysis buffer to generate cell lysates. Proteins from cell lysate were separated by gel electrophoresis (10% SDS-PAGE) and transferred to nitrocellulose membranes. Immunoblots were then probed with antibodies recognizing Aiolos, CRBN, Ikaros, ZFP91 (LSBio), IRF4, IRF7, Myc, and β-actin (Li-Cor).

[5] = system: Aiolos, Ikaros, IRF4, Cereblon; assay: Western blot of Aiolos, Ikaros, IRF4, Cereblon in DLBCL cell lines; type: cell-based, human
Protocol: Immunoblots were probed with antibodies recognizing: Aiolos, Ikaros, Cereblon, IRF4, c-myc, CD44, EZH2, EBF 1, PU. 1, and β-actin. Signals were detected with a LI-COR imager
The following steps can be performed to harvest cells in preparation for Western Blot analysis. The steps are performed on ice and any centrifugation is performed in a 4° C. refrigerated centrifuge. RIPA lysis buffer (Pierce, cat #89900) is first prepared by adding […] proteinase inhibitors (Pierce, cat #78443) to 1 mL of RIPA buffer. Subsequently, cells are washed once in ice-cold phosphate buffered saline (PBS). The cells are then lysed with 0.25 mL RIPA lysis buffer. The PBMCs are placed on ice for 30 minutes and vortexed every 10 minutes. Lysates are frozen and stored at −80° C. prior to further processing.
Lysates are placed in a QIAshredder® tube (QIAGEN, cat #79656) and spun down 30 sec, top speed (13200 rpm) in an Eppendorf benchtop centrifuge (Model 5415 R). The lysate is then transferred to a 1.5 mL clear Eppendorf tube and spun down 10 min at top speed. The supernatent is collected without disturbing the cell debris pellet. The supernatent is dry ice frozen and stored at −80° C. prior to analysis.
The protein concentration in supernatent is measured using BCA assay and the expected protein yield is about 0.5-5 μg/μL, or 125-1250 μg total. Approximately ≥10 μg protein per lane is loaded for western blotting (IRF4, IKZF3, etc.) using antibodies against the human proteins.
Membranes are immunblotted with anti-Aiolos (Santa Cruz Biotechnology, Dallas, Tex.), anti-Ikaros (Millipore, Billerica, Mass.) and anti-Actin (Sigma, St. Louis, Mo.; or LI-COR Biosciences, Lincoln, Nebr.) and secondary antibodies (LI-COR Biosciences, Lincoln, Nebr.). The blots are analyzed on Odyssey imager (LI-COR Biosciences, Lincoln, Nebr.).

[6] = system: IRF7, IFN response; assay: IFN response, Western blot of IRF7 in U2932 (ABC) cells; type: cell-based
Protocol: U2932 (ABC) cells were cultured and cell-passaged long-term in Compound A as described in Section 6.10. Levels of Aiolos, IRF7, and β-actin (control) were assessed using Western blotting, essentially as described above in Section 6.8.

[7] = system: Aiolos; assay: Western blot of Aiolos in GCB and ABC cell lines, 24 or 72 hours; type: cell-based; conditions: ABC and GCB DLBCL cell lines
Protocol: Aiolos or β-actin (control) protein levels were analyzed by Western blotting, essentially as described in Section 6.8.

[8] = system: Aiolos, Ikaros, ZFP91; assay: CRBN dependence of ZFP91 reduction in U266 cells, Western blot; type: cell-based; conditions: 6 hour
Protocol: U266 cells were transduced with inducible shRNA constructs targeting CRBN or targeting luciferase as control. Cells were grown in the presence or in the absence of 10 ng/ml Doxycycline, and in the presence or in the absence of 1 μM pomalidomide. Cells were harvested and were treated in cell lysis buffer to generate cell lysates. Proteins from cell lysate were separated by gel electrophoresis and transferred to nitrocellulose membranes. Immunoblots were then probed with antibodies recognizing Aiolos, CRBN, Ikaros, ZFP91, IRF4, IFIT1, IFIT3, P-STAT1, and β-actin (Li-Cor).
Cells were harvested, and lysates were run on 10% SDS-PAGE and immunoblotted with the appropriate antibodies.
MG132 activates c-Jun N-terminal kinase (JNK1), which initiates apoptosis. […] MLN4924 is a NAE1 inhibitor that blocks the activity of Cullin Ring Ligases (CRLs), such as CRL4^CRBN. […] Cells were harvested and lysates were run on 10% SDS-PAGE, transferred to nitrocellulose and immunoblotted with the corresponding antibodies.

[9] = 3 days, tritiated thymidine incorporation

Structure (SMILES): Cc1nc2cccc(N)c2c(=O)n1C1CCC(=O)NC1=O (stereo not drawn) [Compound A, 3-(5-amino-2-methyl-4-oxo-4H-quinazolin-3-yl)-piperidine-2,6-dione]
- sensitivity of ABC DLBCL cell lines [1]: sensitive
- activity in some GCB DLBCL compared to lenalidomide (proliferation) [1, 9]: Differential activity
- potency in ABC DLBCL (proliferation) [1, 9]: more potent than lenalidomide
- IFIT1, IFIT3, DDX58, XAF1, IFIH1, and OAS3 protein expression ([2]; FIG. 13A): upregulates
- DDX58, IFI27, IFIT1, IFIT3, DDX58, and XAF1 gene expression ([2]; FIG. 13B): upregulates
- ISG15 and OAS3 gene expression ([2]; FIG. 13C): upregulates
- IRF changes ([2]; FIG. 13E): induces
- IFIT1 and IFIT3 protein expression ([2]; FIG. 13F): upregulates
- IKKE protein level ([2]; FIG. 13F): reduces
- TBK1 phosphorylation (TBK1-PO4) ([2]; FIG. 13F): upregulates
- levels of STAT or phosphorylated STAT ([2]; FIG. 13G): induces changes
- overall effect on protein abundance compared to lenalidomide ([3]; 10 uM each, log2 ratios vs DMSO): generally stronger effect
- gradient of regression line, log2 ratios of lenalidomide and Compound A plotted against each other ([3]; 10 uM each, r2=0.752, intercept 0.03): 1.45
- effect on CSNK1A1 protein ([3]; ABC-DLBCL cell line, 10 uM, vs DMSO): does not appear to affect
- levels of Aiolos, Ikaros, and ZFP91 [4]: reduced
- IRF4 levels ([5]; DLBCL cell lines, 1 μM or 10 μM, within 72 hours): reduce
- Aiolos levels ([5]; Karpas 422 (GCB) and TMD8 (ABC), 10 μM, 1, 6 or 12 hours, vs DMSO): decrease
- Aiolos and Ikaros levels ([5]; WSU-DLCL2 (GCB) and OCI-LY10 (ABC), 10 μM, 1, 6 or 12 hours, vs DMSO): decreasing
- CRBN levels ([5]; nine GCB and ABC DLBCL cell lines, 1 μM or 10 μM, 72 hours): remained constant
- Aiolos and Ikaros levels ([5]; nine GCB and ABC DLBCL cell lines, 1 μM or 10 μM, 72 hours, vs DMSO): decreasing
- IFN response gene expression ([6]; FIG. 10A): up-regulates
- IRF7 protein expression ([6]; U2932 (ABC), Western blot): upregulates
- Aiolos protein levels [7]: decrease in a dose-dependent manner
- destruction of Aiolos, Ikaros, and ZFP91 (CRBN dependent pathway) [8]: induced
